Test results taken from ChEMBL document CHEMBL1150522, “Preparation and antifungal activity of fusacandin analogs: C-6 sidechain esters” (1996).
≈ marks a conversion by molar mass, not a printed value.

Legend:
Format in all cases: functional
Candida albicans [1] = assay: Minimum inhibitory concentration against Candida albicans (CCH 442) in the presence of serum
Candida albicans [2] = assay: Minimum inhibitory concentration against Candida albicans (ATCC 10231) in the absence of serum.
Candida albicans [3] = assay: Minimum inhibitory concentration against Candida albicans (ATCC 10231) in the presence of serum
Candida albicans [4] = assay: Minimum inhibitory concentration against Candida albicans (ATCC 38247) in the absence of serum.
Candida albicans [5] = assay: Minimum inhibitory concentration against Candida albicans (ATCC 38247) in the presence of serum
Candida albicans [6] = assay: Minimum inhibitory concentration against Candida albicans (ATCC 62376) in the absence of serum.
Candida albicans [7] = assay: Minimum inhibitory concentration against Candida albicans (ATCC 62376) in the presence of serum
Candida albicans [8] = assay: Minimum inhibitory concentration against Candida albicans (CCH 442) in the absence of serum.
Candida albicans [9] = assay: Minimum inhibitory concentration against Candida albicans (579a) in the absence of serum.
Candida albicans [10] = assay: Minimum inhibitory concentration against Candida albicans (579a) in the presence of serum

SMILES | MIC (Candida albicans [1]) [µg/mL] | MIC (Candida albicans [2]) [µg/mL] | MIC (Candida albicans [3]) [µg/mL] | MIC (Candida albicans [4]) [µg/mL] | MIC (Candida albicans [5]) [µg/mL] | MIC (Candida albicans [6]) [µg/mL] | MIC (Candida albicans [7]) [µg/mL] | MIC (Candida albicans [8]) [µg/mL] | MIC (Candida albicans [9]) [µg/mL] | MIC (Candida albicans [10]) [µg/mL]
CCCCC/C=C/C=C/[C@@H](O)C/C=C/C=C/C(=O)O[C@@H]1[C@@H](O)[C@H](c2c(O)cc(O)cc2CO)O[C@H](CO)[C@H]1O[C@@H]1O[C@H](COC(=O)c2ccc(-c3ccccc3OC)cc2)[C@H](O)[C@H](O)[C@H]1O[C@@H]1O[C@H](CO)[C@H](O)[C@H](O)[C@H]1O | 6.25 | 50 (≈ 46.2 µM) | 6.25 | 100 (≈ 92.3 µM) | 6.25 | 50 (≈ 46.2 µM) | 1.56 | 50 (≈ 46.2 µM) | 50 (≈ 46.2 µM) | 1.56
CCCCC/C=C/C=C/[C@@H](O)C/C=C/C=C/C(=O)O[C@@H]1[C@@H](O)[C@H](c2c(O)cc(O)cc2CO)O[C@H](CO)[C@H]1O[C@@H]1O[C@H](COC(=O)c2ccc(-c3ccc(OCCC)cc3)cc2)[C@H](O)[C@H](O)[C@H]1O[C@@H]1O[C@H](CO)[C@H](O)[C@H](O)[C@H]1O | 0.78 | 12.5 (≈ 11.2 µM) | 0.78 | 25 (≈ 22.5 µM) | 0.78 | 12.5 (≈ 11.2 µM) | 0.78 | 6.25 (≈ 5.62 µM) | 25 (≈ 22.5 µM) | 0.78
CCCCC/C=C/C=C/[C@@H](O)C/C=C/C=C/C(=O)O[C@@H]1[C@@H](O)[C@H](c2c(O)cc(O)cc2CO)O[C@H](CO)[C@H]1O[C@@H]1O[C@H](COC(=O)c2ccc(-c3ccccc3)cc2)[C@H](O)[C@H](O)[C@H]1O[C@@H]1O[C@H](CO)[C@H](O)[C@H](O)[C@H]1O | 0.78 | 12.5 (≈ 11.9 µM) | 0.78 | 25 (≈ 23.7 µM) | 1.56 | 12.5 (≈ 11.9 µM) | 0.78 | 12.5 (≈ 11.9 µM) | 12.5 (≈ 11.9 µM) | 0.78
CCCCC/C=C/C=C/[C@@H](O)C/C=C/C=C/C(=O)O[C@@H]1[C@@H](O)[C@H](c2c(O)cc(O)cc2CO)O[C@H](CO)[C@H]1O[C@@H]1O[C@H](COC(=O)CCCCCCCCC)[C@H](O)[C@H](O)[C@H]1O[C@@H]1O[C@H](CO)[C@H](O)[C@H](O)[C@H]1O | 6.25 | > 100 | 12.5 | > 100 | 12.5 | > 100 | 12.5 | > 100 | > 100 | 12.5
CCCCC/C=C/C=C/[C@@H](O)C/C=C/C=C/C(=O)O[C@@H]1[C@@H](O)[C@H](c2c(O)cc(O)cc2CO)O[C@H](CO)[C@H]1O[C@@H]1O[C@H](COC(=O)c2ccc(-c3ccc(-c4ccccc4)cc3)cc2)[C@H](O)[C@H](O)[C@H]1O[C@@H]1O[C@H](CO)[C@H](O)[C@H](O)[C@H]1O | 0.78 | 12.5 (≈ 11.1 µM) | 1.56 | 25 (≈ 22.1 µM) | 3.12 | 12.5 (≈ 11.1 µM) | 0.78 | 12.5 (≈ 11.1 µM) | 12.5 (≈ 11.1 µM) | 0.78
CCCCC/C=C/C=C/[C@@H](O)C/C=C/C=C/C(=O)O[C@@H]1[C@@H](O)[C@H](c2c(O)cc(O)cc2CO)O[C@H](CO)[C@H]1O[C@@H]1O[C@H](COC(=O)c2ccc(-c3ccc(OCc4ccccc4)cc3)cc2)[C@H](O)[C@H](O)[C@H]1O[C@@H]1O[C@H](CO)[C@H](O)[C@H](O)[C@H]1O | 3.12 | 50 (≈ 43.1 µM) | 1.56 | 25 (≈ 21.6 µM) | 3.12 | 25 (≈ 21.6 µM) | 1.56 | 12.5 (≈ 10.8 µM) | 50 (≈ 43.1 µM) | 0.78
CCCCC/C=C/C=C/[C@@H](O)C/C=C/C=C/C(=O)O[C@@H]1[C@@H](O)[C@H](c2c(O)cc(O)cc2CO)O[C@H](CO)[C@H]1O[C@@H]1O[C@H](COC(=O)c2ccc(-c3ccc(OC(C)C)cc3)cc2)[C@H](O)[C@H](O)[C@H]1O[C@@H]1O[C@H](CO)[C@H](O)[C@H](O)[C@H]1O | 0.78 | 12.5 (≈ 11.2 µM) | 1.56 | 25 (≈ 22.5 µM) | 0.78 | 12.5 (≈ 11.2 µM) | 0.78 | 6.25 (≈ 5.62 µM) | 12.5 (≈ 11.2 µM) | 0.78
CCCCC/C=C/C=C/[C@@H](O)C/C=C/C=C/C(=O)O[C@@H]1[C@@H](O)[C@H](c2c(O)cc(O)cc2CO)O[C@H](CO)[C@H]1O[C@@H]1O[C@H](COC(=O)/C=C/C=C/CCCCCC)[C@H](O)[C@H](O)[C@H]1O[C@@H]1O[C@H](CO)[C@H](O)[C@H](O)[C@H]1O | 1.56 | > 100 | 1.56 | > 100 | 1.56 | > 100 | 3.12 | > 100 | > 100 | 0.78
CCC(O)/C=C/C=C\C=C\C(=O)OC[C@H]1O[C@@H](O[C@H]2[C@H](OC(=O)/C=C/C=C/C[C@H](O)/C(C)=C/C=C/CCC(C)CC)[C@@H](O)[C@@]3(OCc4cc(O)cc(O)c43)O[C@@H]2CO)[C@H](O)[C@@H](O)[C@H]1O (stereo not given in full) | 0.78 | > 100 | 0.2 | > 100 | 0.39 | > 100 | 0.39 | > 100 | > 100 | 0.78
CCCCC/C=C/C=C/[C@@H](O)C/C=C/C=C/C(=O)O[C@@H]1[C@@H](O)[C@H](c2c(O)cc(O)cc2CO)O[C@H](CO)[C@H]1O[C@@H]1O[C@H](COC(=O)c2ccc(Oc3ccccc3)cc2)[C@H](O)[C@H](O)[C@H]1O[C@@H]1O[C@H](CO)[C@H](O)[C@H](O)[C@H]1O | 3.12 | 50 (≈ 46.8 µM) | 3.12 | 50 (≈ 46.8 µM) | 3.12 | > 100 | 3.12 | 100 (≈ 93.5 µM) | 50 (≈ 46.8 µM) | 1.56
CCCCC/C=C/C=C/[C@@H](O)C/C=C/C=C/C(=O)O[C@@H]1[C@@H](O)[C@H](c2c(O)cc(O)cc2CO)O[C@H](CO)[C@H]1O[C@@H]1O[C@H](COC(=O)c2ccccc2)[C@H](O)[C@H](O)[C@H]1O[C@@H]1O[C@H](CO)[C@H](O)[C@H](O)[C@H]1O | 12.5 | > 100 | 12.5 | > 100 | 6.25 | > 100 | 12.5 | > 100 | > 100 | 6.25
CCCCC/C=C/C=C/[C@@H](O)C/C=C/C=C/C(=O)O[C@@H]1[C@@H](O)[C@H](c2c(O)cc(O)cc2CO)O[C@H](CO)[C@H]1O[C@@H]1O[C@H](COC(=O)c2ccc3c(c2)-c2ccccc2-3)[C@H](O)[C@H](O)[C@H]1O[C@@H]1O[C@H](CO)[C@H](O)[C@H](O)[C@H]1O | 0.39 | 25 (≈ 23.8 µM) | 1.56 | 25 (≈ 23.8 µM) | 0.78 | 25 (≈ 23.8 µM) | 1.56 | 25 (≈ 23.8 µM) | 25 (≈ 23.8 µM) | 0.39
CCCCC/C=C/C=C/[C@@H](O)C/C=C/C=C/C(=O)O[C@@H]1[C@@H](O)[C@H](c2c(O)cc(O)cc2CO)O[C@H](CO)[C@H]1O[C@@H]1O[C@H](COC(=O)c2ccc(-c3ccc(OC)cc3)cc2)[C@H](O)[C@H](O)[C@H]1O[C@@H]1O[C@H](CO)[C@H](O)[C@H](O)[C@H]1O | 0.78 | 12.5 (≈ 11.5 µM) | 0.78 | 25 (≈ 23.1 µM) | 3.12 | 12.5 (≈ 11.5 µM) | 0.78 | 6.25 (≈ 5.77 µM) | 12.5 (≈ 11.5 µM) | 1.56
